Laboratory results published in the Kinase Knowledgebase extract (Sharma et al. 2016).
pIC50: −log10 of the molar value.

Experiments:
PIK3CB (Human) = PIK3CB (Human) (UniProt P42338); assay: Assessment of PIK3CB Kinase Activity
PIK3CA (human) = PIK3CA (human) (UniProt P42336); assay: Assessment of PIK3CA Kinase Activity
PIK3CG (human) = PIK3CG (human) (UniProt P48736); assay: Assessment of PIK3CG Kinase Activity
PIK3CD (Human) = PIK3CD (Human) (UniProt O00329); assay: Assessment of PIK3CD Kinase Activity
Sequence of PIK3CD (Human) (O00329 whole entry, looked up): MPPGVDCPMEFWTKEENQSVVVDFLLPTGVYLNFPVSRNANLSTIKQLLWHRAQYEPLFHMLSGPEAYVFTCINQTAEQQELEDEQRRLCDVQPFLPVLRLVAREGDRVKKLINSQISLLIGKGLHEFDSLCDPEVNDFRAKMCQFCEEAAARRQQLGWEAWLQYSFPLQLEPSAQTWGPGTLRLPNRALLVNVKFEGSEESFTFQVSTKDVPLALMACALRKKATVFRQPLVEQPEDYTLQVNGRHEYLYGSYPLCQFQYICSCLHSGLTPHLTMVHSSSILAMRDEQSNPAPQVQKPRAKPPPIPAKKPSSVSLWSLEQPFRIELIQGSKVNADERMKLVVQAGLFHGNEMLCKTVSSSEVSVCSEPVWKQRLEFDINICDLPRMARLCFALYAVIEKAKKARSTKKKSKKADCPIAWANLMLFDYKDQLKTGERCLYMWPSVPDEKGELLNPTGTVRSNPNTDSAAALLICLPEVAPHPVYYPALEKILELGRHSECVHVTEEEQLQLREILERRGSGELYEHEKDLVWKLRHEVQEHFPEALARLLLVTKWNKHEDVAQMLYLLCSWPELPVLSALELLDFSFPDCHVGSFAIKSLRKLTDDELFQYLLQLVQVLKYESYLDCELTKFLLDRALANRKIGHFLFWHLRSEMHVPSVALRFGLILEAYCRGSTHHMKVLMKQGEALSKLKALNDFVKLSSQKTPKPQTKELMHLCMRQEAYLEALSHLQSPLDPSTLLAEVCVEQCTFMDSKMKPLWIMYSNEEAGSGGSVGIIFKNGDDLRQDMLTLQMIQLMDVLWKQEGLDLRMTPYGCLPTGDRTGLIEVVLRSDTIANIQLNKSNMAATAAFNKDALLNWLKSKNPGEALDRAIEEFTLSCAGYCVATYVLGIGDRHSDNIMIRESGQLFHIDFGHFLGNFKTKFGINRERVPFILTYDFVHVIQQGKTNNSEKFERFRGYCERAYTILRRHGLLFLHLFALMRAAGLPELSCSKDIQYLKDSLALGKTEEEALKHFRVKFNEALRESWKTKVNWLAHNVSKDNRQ

Sequence of PIK3CG (human) (P48736 whole entry, looked up): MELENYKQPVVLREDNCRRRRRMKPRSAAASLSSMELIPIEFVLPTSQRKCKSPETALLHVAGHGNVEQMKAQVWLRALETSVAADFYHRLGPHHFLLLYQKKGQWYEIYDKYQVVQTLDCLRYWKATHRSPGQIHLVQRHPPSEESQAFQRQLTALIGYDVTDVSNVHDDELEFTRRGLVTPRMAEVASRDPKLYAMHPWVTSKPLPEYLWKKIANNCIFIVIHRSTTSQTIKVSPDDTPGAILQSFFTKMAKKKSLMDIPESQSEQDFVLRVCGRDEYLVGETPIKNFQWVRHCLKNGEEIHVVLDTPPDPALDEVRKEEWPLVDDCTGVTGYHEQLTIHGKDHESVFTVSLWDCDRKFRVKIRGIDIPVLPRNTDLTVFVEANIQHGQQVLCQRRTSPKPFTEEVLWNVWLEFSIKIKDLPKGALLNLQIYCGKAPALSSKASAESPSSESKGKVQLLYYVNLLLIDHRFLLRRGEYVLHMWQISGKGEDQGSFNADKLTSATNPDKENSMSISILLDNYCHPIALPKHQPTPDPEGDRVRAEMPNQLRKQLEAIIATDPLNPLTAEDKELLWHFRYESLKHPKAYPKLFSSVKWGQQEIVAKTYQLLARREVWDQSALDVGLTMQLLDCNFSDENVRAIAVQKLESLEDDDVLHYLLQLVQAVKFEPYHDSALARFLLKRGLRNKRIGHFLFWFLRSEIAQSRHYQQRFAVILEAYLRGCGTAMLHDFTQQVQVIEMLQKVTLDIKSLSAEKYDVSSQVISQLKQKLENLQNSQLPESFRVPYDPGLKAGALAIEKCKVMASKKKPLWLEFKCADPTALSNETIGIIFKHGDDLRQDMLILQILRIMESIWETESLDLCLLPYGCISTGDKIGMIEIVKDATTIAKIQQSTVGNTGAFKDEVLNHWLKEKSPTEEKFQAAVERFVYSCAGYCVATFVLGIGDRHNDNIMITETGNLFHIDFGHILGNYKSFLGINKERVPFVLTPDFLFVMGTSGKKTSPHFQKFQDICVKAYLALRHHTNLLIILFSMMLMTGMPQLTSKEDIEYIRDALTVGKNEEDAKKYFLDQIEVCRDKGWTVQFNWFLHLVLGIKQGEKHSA
Sequence of PIK3CB (Human) (P42338 whole entry, looked up): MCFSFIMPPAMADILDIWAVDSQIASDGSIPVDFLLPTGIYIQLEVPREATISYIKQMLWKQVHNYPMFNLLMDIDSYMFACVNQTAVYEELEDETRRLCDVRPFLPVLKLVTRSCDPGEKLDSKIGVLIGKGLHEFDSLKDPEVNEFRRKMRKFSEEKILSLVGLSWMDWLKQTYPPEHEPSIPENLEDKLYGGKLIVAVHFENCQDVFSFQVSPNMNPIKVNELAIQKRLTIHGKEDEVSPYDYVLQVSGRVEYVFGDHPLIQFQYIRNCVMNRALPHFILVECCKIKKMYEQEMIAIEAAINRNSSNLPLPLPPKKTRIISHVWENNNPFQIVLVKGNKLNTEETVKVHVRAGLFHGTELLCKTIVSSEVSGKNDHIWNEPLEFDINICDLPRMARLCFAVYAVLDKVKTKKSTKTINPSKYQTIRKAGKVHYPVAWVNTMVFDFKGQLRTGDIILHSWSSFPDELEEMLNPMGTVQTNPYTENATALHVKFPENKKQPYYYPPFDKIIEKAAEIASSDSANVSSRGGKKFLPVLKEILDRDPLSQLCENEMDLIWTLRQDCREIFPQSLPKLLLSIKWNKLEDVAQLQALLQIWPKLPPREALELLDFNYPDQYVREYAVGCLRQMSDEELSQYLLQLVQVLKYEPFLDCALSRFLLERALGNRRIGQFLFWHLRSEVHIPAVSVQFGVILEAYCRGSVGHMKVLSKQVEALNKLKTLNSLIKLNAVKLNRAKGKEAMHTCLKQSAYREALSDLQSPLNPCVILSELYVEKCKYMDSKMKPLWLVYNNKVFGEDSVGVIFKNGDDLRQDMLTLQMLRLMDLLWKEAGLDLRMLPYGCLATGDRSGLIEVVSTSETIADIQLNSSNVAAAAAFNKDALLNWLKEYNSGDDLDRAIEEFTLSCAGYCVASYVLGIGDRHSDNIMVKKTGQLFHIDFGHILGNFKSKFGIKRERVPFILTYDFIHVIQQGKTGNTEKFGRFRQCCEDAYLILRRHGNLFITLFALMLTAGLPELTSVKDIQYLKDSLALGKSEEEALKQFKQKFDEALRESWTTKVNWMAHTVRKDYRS
Sequence of PIK3CA (human) (P42336 whole entry, looked up): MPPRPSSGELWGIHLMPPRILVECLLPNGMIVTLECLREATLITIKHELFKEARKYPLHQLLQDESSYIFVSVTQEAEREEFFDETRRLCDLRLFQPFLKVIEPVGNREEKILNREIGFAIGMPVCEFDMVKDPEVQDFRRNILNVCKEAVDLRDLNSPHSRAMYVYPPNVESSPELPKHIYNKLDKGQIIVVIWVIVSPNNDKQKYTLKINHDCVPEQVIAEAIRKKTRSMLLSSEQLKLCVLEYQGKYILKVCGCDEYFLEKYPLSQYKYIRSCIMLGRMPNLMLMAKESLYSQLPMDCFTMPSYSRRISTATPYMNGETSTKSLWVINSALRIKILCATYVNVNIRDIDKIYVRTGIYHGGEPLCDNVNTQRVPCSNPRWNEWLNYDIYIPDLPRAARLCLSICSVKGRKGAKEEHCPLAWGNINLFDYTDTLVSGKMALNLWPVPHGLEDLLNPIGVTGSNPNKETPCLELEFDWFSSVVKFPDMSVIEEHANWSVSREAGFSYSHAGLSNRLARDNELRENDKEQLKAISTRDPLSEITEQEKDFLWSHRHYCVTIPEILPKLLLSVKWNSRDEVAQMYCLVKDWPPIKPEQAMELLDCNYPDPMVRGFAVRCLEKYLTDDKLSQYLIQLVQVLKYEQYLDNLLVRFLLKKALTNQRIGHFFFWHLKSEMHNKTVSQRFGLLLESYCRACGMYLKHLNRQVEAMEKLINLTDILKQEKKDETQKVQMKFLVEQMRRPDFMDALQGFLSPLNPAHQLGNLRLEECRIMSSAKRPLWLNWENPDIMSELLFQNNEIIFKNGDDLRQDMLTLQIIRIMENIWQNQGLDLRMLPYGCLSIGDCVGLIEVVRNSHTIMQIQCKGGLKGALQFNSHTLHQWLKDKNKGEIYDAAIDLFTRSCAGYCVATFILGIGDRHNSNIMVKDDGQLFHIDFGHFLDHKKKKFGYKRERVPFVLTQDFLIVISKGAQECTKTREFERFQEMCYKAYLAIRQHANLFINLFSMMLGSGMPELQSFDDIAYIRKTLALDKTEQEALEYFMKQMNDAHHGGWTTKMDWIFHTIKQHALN

Row | Structure (SMILES) | pIC50 (PIK3CB (Human)) | pIC50 (PIK3CA (human)) | pIC50 (PIK3CG (human)) | pIC50 (PIK3CD (Human))
1 | O=C(NOCC1CC1)c1cc2nc(-c3cccc4[nH]ncc34)nc(N3CCOCC3)c2s1 | < 7.00 | > 6.00 | > 7.00 | < 7.00
2 | CCNC(=O)c1cc2nc(-c3cccc4[nH]ncc34)nc(N3CCOCC3)c2s1 | < 7.00 | > 6.00 | < 7.00 | < 7.00
3 | O=C(NCc1cc2nc(-c3cccc4[nH]ncc34)nc(N3CCOCC3)c2s1)N1CCOCC1 | < 7.00 | > 6.00 | > 7.00 | < 7.00
4 | COc1ccc(NCc2cc3nc(-c4cccc5[nH]ncc45)nc(N4CCOCC4)c3s2)cn1 | < 7.00 | > 6.00 | > 7.00 | < 7.00
5 | O=C(NCCN1CCCCC1)c1cc2nc(-c3cccc4[nH]ncc34)nc(N3CCOCC3)c2s1 | < 7.00 | > 6.00 | > 7.00 | < 7.00
6 | c1cc(-c2nc(N3CCOCC3)c3sc(Cn4ccnc4)cc3n2)c2cn[nH]c2c1 | < 7.00 | > 6.00 | > 7.00 | < 7.00
7 | OC1(c2cc3nc(-c4cccc5[nH]ncc45)nc(N4CCOCC4)c3s2)CCC1 | < 7.00 | > 6.00 | > 7.00 | < 7.00
8 | c1cc(-c2nc(N3CCOCC3)c3sc(-c4cn[nH]c4)cc3n2)c2cn[nH]c2c1 | < 7.00 | > 6.00 | > 7.00 | < 7.00
9 | C[C@H](O)CNCc1cc2nc(-c3cccc4[nH]ncc34)nc(N3CCOCC3)c2s1 | < 7.00 | > 6.00 | > 7.00 | < 7.00
10 | OCCNc1cc2nc(-c3cccc4[nH]ncc34)nc(N3CCOCC3)c2s1 | < 7.00 | > 6.00 | > 7.00 | < 7.00
11 | CN(C)C(=O)c1cc2nc(-c3cccc4[nH]ncc34)nc(N3CCOCC3)c2s1 | < 7.00 | > 6.00 | > 7.00 | < 7.00
12 | CC(C)(NC(=O)c1ccccc1)c1cc2nc(-c3cccc4[nH]ncc34)nc(N3CCOCC3)c2s1 | > 7.00 | > 6.00 | > 7.00 | < 7.00
13 | COC/C=C/c1cc2nc(-c3cccc4[nH]ncc34)nc(N3CCOCC3)c2s1 | > 7.00 | > 6.00 | > 7.00 | < 7.00
14 | CS(=O)(=O)N1CCC(C(O)c2cc3nc(-c4cccc5[nH]ncc45)nc(N4CCOCC4)c3s2)CC1 (centres undefined) | < 7.00 | > 6.00 | > 7.00 | < 7.00
15 | CN(Cc1cc2nc(-c3cccc4[nH]ncc34)nc(N3CCOCC3)c2s1)C(=O)c1ccccc1 | < 7.00 | > 6.00 | < 7.00 | < 7.00
16 | Nc1nc(-c2cc3nc(-c4cnc5[nH]ccc5c4)nc(N4CCOCC4)c3s2)cs1 | > 7.00 | > 6.00 | > 7.00 | > 7.00
17 | c1cc2cc(-c3nc(N4CCOCC4)c4sc(-c5ccc(N6CCOCC6)nc5)cc4n3)cnc2[nH]1 | > 7.00 | > 6.00 | > 7.00 | > 7.00
18 | O=S(=O)(Nc1cccc(O)c1)c1cc2nc(-c3cccc4[nH]ncc34)nc(N3CCOCC3)c2s1 | > 7.00 | > 6.00 | > 7.00 | < 7.00
19 | CC(C)(O)c1cc2nc(-c3cccc4[nH]ncc34)nc(N3CCOCC3)c2s1 | > 7.00 | > 6.00 | > 7.00 | < 7.00
20 | O=S(=O)(NCCN1CCCCC1)c1cc2nc(-c3cccc4[nH]ncc34)nc(N3CCOCC3)c2s1 | > 7.00 | > 6.00 | > 7.00 | < 7.00
21 | CC(C)(O)c1cc2nc(-c3cccc4[nH]ccc34)nc(N3CCOCC3)c2s1 | > 7.00 | > 6.00 | > 7.00 | < 7.00
22 | O=C(O)c1cccc(-c2cc3nc(-c4cccc5[nH]ncc45)nc(N4CCOCC4)c3s2)c1 | > 7.00 | > 6.00 | > 7.00 | < 7.00
23 | CN(Cc1cc2c(N3CCOCC3)nc(-c3cnc4[nH]ccc4c3)nc2s1)S(C)(=O)=O | > 7.00 | > 6.00 | > 7.00 | > 7.00
24 | OCc1cccc(-c2cc3nc(-c4cccc5[nH]ncc45)nc(N4CCOCC4)c3s2)c1 | > 7.00 | > 6.00 | > 7.00 | < 7.00

The next lines start with the values.

Row | pIC50 (PIK3CB (Human)) | pIC50 (PIK3CA (human)) | pIC50 (PIK3CG (human)) | pIC50 (PIK3CD (Human)) | Structure (SMILES)
25 | > 7.00 | > 6.00 | < 7.00 | < 7.00 | NCC(=O)Nc1cccc(-c2cc3nc(-c4cccc5[nH]ncc45)nc(N4CCOCC4)c3s2)c1
26 | > 7.00 | > 6.00 | > 7.00 | > 7.00 | Cc1c(-c2cccc(S(C)(=O)=O)c2)sc2c(N3CCOCC3)nc(-c3cnc4[nH]ccc4c3)nc12
27 | > 7.00 | > 6.00 | > 7.00 | < 7.00 | CNC(=O)c1cccc(-c2cc3nc(-c4cccc5[nH]ncc45)nc(N4CCOCC4)c3s2)c1
28 | > 7.00 | > 6.00 | > 7.00 | < 7.00 | CC(C)(O)c1cc2nc(-c3cnc4[nH]ccc4c3)nc(N3CCOCC3)c2s1
29 | > 7.00 | > 6.00 | > 7.00 | < 7.00 | C[C@H](O)CNC(=O)c1cccc(-c2cc3nc(-c4cccc5[nH]ncc45)nc(N4CCOCC4)c3s2)c1
30 | > 7.00 | > 6.00 | > 7.00 | < 7.00 | CS(=O)(=O)c1cccc(C(=O)NCc2cc3nc(-c4cccc5[nH]ncc45)nc(N4CCOCC4)c3s2)c1
31 | > 7.00 | > 6.00 | > 7.00 | < 7.00 | CS(=O)(=O)c1cccc(-c2cc3nc(-c4cccc5[nH]ncc45)nc(N4CCOCC4)c3s2)c1
32 | > 7.00 | > 6.00 | > 7.00 | < 7.00 | CC(=O)Nc1cccc(-c2cc3nc(-c4cccc5[nH]ncc45)nc(N4CCOCC4)c3s2)c1
33 | > 7.00 | > 6.00 | < 7.00 | < 7.00 | c1ccc(-c2cc3nc(-c4cccc5[nH]ncc45)nc(N4CCOCC4)c3o2)cc1
34 | > 7.00 | > 6.00 | > 7.00 | > 7.00 | CS(=O)(=O)c1cccc(-c2cc3nc(-c4cnc5[nH]ccc5c4)nc(N4CCOCC4)c3s2)c1
35 | > 7.00 | > 6.00 | > 7.00 | < 7.00 | CN(C)Cc1cc2nc(-c3cccc4[nH]ncc34)nc(N3CCOCC3)c2s1
36 | > 7.00 | > 6.00 | > 7.00 | > 7.00 | Cc1c(-c2cccc(S(C)(=O)=O)c2)sc2c(N3CCOCC3)nc(-c3cccc4[nH]ncc34)nc12
